Target: T1, human full length HSD11β1 (Homo sapiens, UniProt P28845)
T1 construct: transient expression of human full length HSD11β1 expression vector; host or cells: CHO cells, transient transfection
Assay: In Vitro HSD11β1 Inhibition Assay
Format: cell-based
Settings: CHO cells transiently expressing human HSD11β1; 200 nM cortisone+500 uM NADPH overnight; cortisone to cortisol by LC/MS-MS; read-out: 11βHSD1 (IC50)
Procedure: In Vitro HSD11β1 Inhibition Assay:
CHO cells were maintained in Dulbecco's modified Eagle's medium/nutrient mixture F-12 containing 5% fetal bovine serum (v/v) and 2 mM glutamine. Cells were cultured at 37° C. with 5% CO2. For transient expression of human full length HSD11β1 expression vector (OriGene Technologies), cells were seeded at a density of 2×10^5 cells/well in a 6-well plate. Transfection was done using Turbofectin8 reagent (OriGene Technologies), according to the protocol provided with the reagent. After 24 hours post-transfection, cells were trypsinized and pooled together before they were re-seeding to 96-well plate at a density of 40000 cells/well. 24 hours after re-seeding, cells were incubated with 200 nM cortisone+500 uM NADPH (or along with small molecule inhibitors) overnight. The enzymatic activity or inhibition of enzyme activity was measured by estimating the conversion of cortisone to cortisol by LC/MS-MS method. The IC50 in nM was calculated from a 8 point log scale of concentration versus inhibition.

T1 sequence (P28845 whole entry): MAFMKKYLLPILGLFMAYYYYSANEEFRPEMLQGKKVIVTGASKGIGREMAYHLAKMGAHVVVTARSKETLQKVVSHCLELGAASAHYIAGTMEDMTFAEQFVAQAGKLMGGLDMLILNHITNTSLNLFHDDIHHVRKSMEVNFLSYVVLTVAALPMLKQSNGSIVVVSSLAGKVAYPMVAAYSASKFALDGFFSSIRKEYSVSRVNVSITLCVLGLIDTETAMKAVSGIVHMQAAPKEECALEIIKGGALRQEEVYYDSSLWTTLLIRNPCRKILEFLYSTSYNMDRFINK

Row | IC50 [nM] | Compound
1 | > 250 | Cc1[nH]c2ccc(F)cc2c1C(C)CC(=O)N1C2CC3CC1CC(O)(C3)C2 (stereo not shown) [Compound 113, 3-(5-fluoro-2-methyl-1H-indol-3-yl)-1-(5-hydroxy-2-azatricyclo[3.3.1.1^3,7]dec-2-yl)butan-1-one]
2 | > 250 | Cc1cccc2c1c(C(C)CC(=O)N1C3CC4CC1CC(O)(C4)C3)cn2C (stereo not shown) [Compound 206, 3-(1,4-dimethyl-1H-indol-3-yl)-1-(5-hydroxy-2-azatricyclo[3.3.1.1^3,7]dec-2-yl)butan-1-one]
3 | > 250 | CC(CC(=O)N1C2CC3CC1CC(C(=O)O)(C3)C2)c1c[nH]c2cccc(-c3ccco3)c12 (stereo not shown) [Compound 222, 2-(3-(4-(furan-2-yl)-1H-indol-3-yl)butanoyl)-2-azaadamantane-5-carboxylic acid]
4 | < 100 | CC(CC(=O)N1C2CC3CC(C2)CC1C3)c1nc2c(Cl)cccc2s1 (stereo not shown) [Compound 119, 1-(2-azatricyclo[3.3.1.1^3,7]dec-2-yl)-3-(4-chloro-1,3-benzothiazol-2-yl)butan-1-one]
5 | > 250 | O=C(CC(c1c[nH]c2ccccc12)C1CC1)N1C2CC3CC1CC(O)(C3)C2 (stereo not shown) [Example 66, 3-cyclopropyl-1-(5-hydroxy-2-azatricyclo[3.3.1.1^3,7]dec-2-yl)-3-(1H-indol-3-yl)propan-1-one]
6 | 150 to 200 | CC(CC(=O)N1C2CC3CC1CC(CC(=O)O)(C3)C2)c1c[nH]c2ccc(Cl)c(Br)c12 (stereo not shown) [Compound 162, {2-[3-(4-bromo-5-chloro-1H-indol-3-yl)butanoyl]-2-azatricyclo[3.3.1.1^3,7]dec-5-yl}acetic acid]
7 | < 100 | Cc1c(F)ccc2[nH]cc(C(C)CC(=O)N3C4CC5CC3CC(O)(C5)C4)c12 (single isomer, unassigned) [Compound 148, 3-(5-fluoro-4-methyl-1H-indol-3-yl)-1-(5-hydroxy-2-azatricyclo[3.3.1.1^3,7]dec-2-yl)butan-1-one]
8 | > 250 | CCCc1cccc2[nH]cc(CCC(=O)N3C4CC5CC3CC(O)(C5)C4)c12 [Compound 128, 1-(5-hydroxy-2-azatricyclo[3.3.1.1^3,7]dec-2-yl)-3-(4-propyl-1H-indol-3-yl)propan-1-one]
9 | 100 to 150 | CC(CC(=O)N1C2CC3CC1CC(CC(=O)O)(C3)C2)c1c[nH]c2cccc(C3CC3)c12 (single isomer, unassigned) [Compound 155, {2-[3-(4-cyclopropyl-1H-indol-3-yl)butanoyl]-2-azatricyclo[3.3.1.1^3,7]dec-5-yl}acetic acid]
10 | 100 to 150 | Cc1cccc2[nH]cc(CCC(=O)N3C4CC5CC(C4)CC3C5)c12 [Example 2, 1-(2-azatricyclo[3.3.1.1^3,7]dec-2-yl)-3-(4-methyl-1H-indol-3-yl)propan-1-one]
11 | 200 to 250 | CC(CC(=O)N1C2CC3CC1CC(O)(C3)C2)c1nc2ccccc2s1 (stereo not shown) [Compound 84, 3-(1,3-benzothiazol-2-yl)-1-(5-hydroxy-2-azatricyclo[3.3.1.1^3,7]dec-2-yl)butan-1-one]
12 | > 250 | CC(CC(=O)N1C2CC3CC1CC(C(=O)O)(C3)C2)c1c[nH]c2ccc(-c3ccccc3)cc12 (stereo not shown) [Compound 142, 2-[3-(5-phenyl-1H-indol-3-yl)butanoyl]-2-azatricyclo[3.3.1.1^3,7]decane-5-carboxylic acid]
13 | 100 to 150 | CC(CC(=O)N1C2CC3CC1CC(O)(C3)C2)c1c[nH]c2ccc(-c3ccco3)c(Cl)c12 (stereo not shown) [Compound 208, 3-[4-chloro-5-(furan-2-yl)-1H-indol-3-yl]-1-(5-hydroxy-2-azatricyclo[3.3.1.1^3,7]dec-2-yl)butan-1-one]
14 | > 250 | CC(CC(=O)N1C2CC3CC1CC(C(=O)Nc1ccc(F)cc1)(C3)C2)c1c[nH]c2cccc(Cl)c12 (stereo not shown) [Example 45, 2-[3-(4-chloro-1H-indol-3-yl)butanoyl]-N-(4-fluorophenyl)-2-azatricyclo[3.3.1.1^3,7]decane-5-carboxamide]
15 | > 250 | CC(CC(=O)N1C2CC3CC1CC(c1nnn[nH]1)(C3)C2)c1c[nH]c2cccc(Cl)c12 (stereo not shown) [Compound 76, 3-(4-chloro-1H-indol-3-yl)-1-[5-(1H-tetrazol-5-yl)-2-azatricyclo[3.3.1.1^3,7]dec-2-yl]butan-1-one]
16 | > 250 | COc1cc2c(C(C)CC(=O)N3C4CC5CC3CC(O)(C5)C4)c[nH]c2cc1Cl (stereo not shown) [Compound 117, 3-(6-chloro-5-methoxy-1H-indol-3-yl)-1-(5-hydroxy-2-azatricyclo[3.3.1.1^3,7]dec-2-yl)butan-1-one]
17 | > 250 | CC(CC(=O)N1C2CC3CC1CC(Br)(C3)C2)c1c[nH]c2ccc(OS(=O)(=O)C(F)(F)F)cc12 (stereo not shown) [Compound 225, 3-(4-(5-bromo-2-azaadamantan-2-yl)-4-oxobutan-2-yl)-1H-indol-5-yl trifluoromethanesulfonate]

Row | IC50 [nM] | Compound
18 | 100 to 150 | CC(CC(=O)N1C2CC3CC1CC(CC(=O)O)(C3)C2)c1c[nH]c2cccc(Cl)c12 (stereo not shown) [Compound 145, {2-[3-(4-chloro-1H-indol-3-yl)butanoyl]-2-azatricyclo[3.3.1.1^3,7]dec-5-yl}acetic acid]
19 | 150 to 200 | COC12CC3CC(C1)N(C(=O)CC(C)c1c[nH]c4cccc(F)c14)C(C3)C2 (single isomer, unassigned) [Example 30, 3-(4-fluoro-1H-indol-3-yl)-1-(5-methoxy-2-azatricyclo[3.3.1.1^3,7]dec-2-yl)butan-1-one]
20 | 200 to 250 | O=C(CC(c1ccccc1)c1c[nH]c2cc(F)ccc12)N1C2CC3CC1CC(C(=O)O)(C3)C2 (stereo not shown) [Compound 112, 2-[3-(6-fluoro-1H-indol-3-yl)-3-phenylpropanoyl]-2-azatricyclo[3.3.1.1^3,7]decane-5-carboxylic acid]
21 | > 250 | CC(C)C(CC(=O)N1C2CC3CC1CC(O)(C3)C2)c1c[nH]c2ccccc12 (stereo not shown) [Example 23, 1-(5-hydroxy-2-azatricyclo[3.3.1.1^3,7]dec-2-yl)-3-(1H-indol-3-yl)-4-methylpentan-1-one]
22 | < 100 | O=C(CC(c1ccc(F)cc1)c1c[nH]c2ccccc12)N1C2CC3CC1CC(O)(C3)C2 (stereo not shown) [Compound 73, 3-(4-fluorophenyl)-1-(5-hydroxy-2-azatricyclo[3.3.1.1^3,7]dec-2-yl)-3-(1H-indol-3-yl)propan-1-one]
23 | < 100 | CC(CC(=O)N1C2CC3CC1CC(O)(C3)C2)c1c[nH]c2ccc(Cl)c(Cl)c12 (stereo not shown) [Compound 168, 3-(4,5-dichloro-1H-indol-3-yl)-1-(5-hydroxy-2-azatricyclo[3.3.1.1^3,7]dec-2-yl)butan-1-one]
24 | > 250 | CC(CC(=O)N1C2CC3(O)CC1CC(O)(C2)C3)c1c[nH]c2ccc(Cl)c(C3CC3)c12 (stereo not shown) [Compound 163, 3-(5-chloro-4-cyclopropyl-1H-indol-3-yl)-1-(5,7-dihydroxy-2-azatricyclo[3.3.1.1^3,7]dec-2-yl)butan-1-one]
25 | > 250 | O=C(CC(c1ccc(Cl)cc1)c1c[nH]c2ccccc12)N1C2CC3CC1CC(O)(C3)C2 (stereo not shown) [Example 71, 3-(4-chlorophenyl)-1-(5-hydroxy-2-azatricyclo[3.3.1.1^3,7]dec-2-yl)-3-(1H-indol-3-yl)propan-1-one]
26 | > 250 | CC(CC(=O)N1C2CC3CC1CC(OCC1CC1)(C3)C2)c1c[nH]c2cccc(F)c12 (stereo not shown) [Example 33, 1-[5-(cyclopropylmethoxy)-2-azatricyclo[3.3.1.1^3,7]dec-2-yl]-3-(4-fluoro-1H-indol-3-yl)butan-1-one]
27 | > 250 | CC(CC(=O)N1C2CC3CC1CC(C#N)(C3)C2)c1nc2cc(Cl)ccc2s1 (stereo not shown) [Compound 191, 2-[3-(5-chloro-1,3-benzothiazol-2-yl)butanoyl]-2-azatricyclo[3.3.1.1^3,7]decane-5-carbonitrile]
28 | > 250 | Cc1cccc2c(C(C)CC(=O)N3C4CC5CC3CC(O)(C5)C4)c[nH]c12 (stereo not shown) [Compound 78, 1-(5-hydroxy-2-azatricyclo[3.3.1.1^3,7]dec-2-yl)-3-(7-methyl-1H-indol-3-yl)butan-1-one]
29 | > 250 | CC(CC(=O)N1C2CC3CC1CC(O)(C3)C2)c1c[nH]c2ncccc12 (stereo not shown) [Compound 86, 1-(5-hydroxy-2-azatricyclo[3.3.1.1]dec-2-yl)-3-(1H-pyrrolo[2,3-b]pyridin-3-yl)butan-1-one]
30 | 150 to 200 | O=C(CC(c1ccccc1)c1c[nH]c2cc(Cl)ccc12)N1C2CC3CC1CC(C(=O)O)(C3)C2 (stereo not shown) [Compound 134, 2-[3-(6-chloro-1H-indol-3-yl)-3-phenylpropanoyl]-2-azatricyclo[3.3.1.1^3,7]decane-5-carboxylic acid]
31 | > 250 | CC(C)C(CC(=O)N1C2CC3CC1CC(C#N)(C3)C2)c1c[nH]c2ncccc12 (stereo not shown) [Compound 92, 2-[4-methyl-3-(1H-pyrrolo[2,3-b]pyridin-3-yl)pentanoyl]-2-azatricyclo[3.3.1.1^3,7]decane-5-carbonitrile]
32 | < 100 | O=C(CCc1c[nH]c2cccc(C3CC3)c12)N1C2CC3CC1CC(O)(C3)C2 [Compound 126, 3-(4-cyclopropyl-1H-indol-3-yl)-1-(5-hydroxy-2-azatricyclo[3.3.1.1^3,7]dec-2-yl)propan-1-one]
33 | > 250 | CC(CC(=O)N1C2CC3CC1CC(CC(=O)O)(C3)C2)c1c[nH]c2cccc(C3CC3)c12 (single isomer, unassigned) [Compound 156, {2-[3-(4-cyclopropyl-1H-indol-3-yl)butanoyl]-2-azatricyclo[3.3.1.1^3,7]dec-5-yl}acetic acid]
34 | > 250 | COc1ccc2[nH]cc(C(C)CC(=O)N3C4CC5CC3CC(F)(C5)C4)c2c1 (stereo not shown) [Compound 224, 1-(5-fluoro-2-azaadamantan-2-yl)-3-(5-methoxy-1H-indol-3-yl)butan-1-one]
